These results are taken from PMC6664396, “A golden opportunity: benzofuranone modifications of aurones and their influence on optical properties, toxicity, and potential as dyes” (Beilstein Journal of Organic Chemistry, 2019).

Structures are written as SMILES.

Series [1] is described as follows: UV–vis spectra in acetonitrile (λmax, extinction coefficient). It is filed as physicochemical. More on the design: λmax: unit: nm. On the procedure:
With the desired compounds in hand, their UV–visible spectra were recorded at concentrations between 29 and 44 μM in acetonitrile (Figure 3 and Table 1). While not all substituents were prepared at every position, some interesting trends were observed. Substitution at the 4-position whether halogen or hydroxy afforded essentially identical lambda maxima (390 nm), slighly red-shifted compared to the unsubstituted compound 1. On the other hand, hydroxy groups at the 6-position result in a significant blue shift of this lambda max by roughly 40 nm to around 338 nm, presumably due to their donating effect and conjugation with the carbonyl oxygen. […] On the other hand, substitution at the 7-position had virtually no effect, which is to be expected due to the lack of direct conjugation with the carbonyl as well as the only modest electronic effects of alkyl, chlorine, and bromine. In general, the substituent effects are all fairly modest and result in fairly moderate changes in the extinction coefficient (although hydroxy substitution does definitely increase this value by roughly 50%).

The test system of series [2] is Hep G2 human liver cancer cells. The series is described as follows: Hep G2 cytotoxicity assay (MTT). The conditions noted are these: for % Inhibition: Hep G2 MTT absorbance relative to vehicle. It is filed as cell-based. Here is the method: An initial screening of toxicity was conducted at a fairly high concentration (200 μM) on the present series of compounds using a standard HEP G2 inhibition assay (Table 1). Compared to a currently used yellow dye (tartrazine), the aurones are similar to more toxic. Within the aurone series, though, an interesting pair of trends can be observed. First, all hydroxylated aurones are comparatively more toxic, displaying >50% inhibition at 200 μM. Methyl groups are similarly mostly more toxic. For the halogens, however, location is fairly important, with the 6 or 7 position being much less toxic (similar to tartrazine) and dramatically better than the unsubstituted base compound 1, with the unexpected exception of 7-bromo compound 10. Whether this trend is general or not for aurone compounds is an interesting question for future study.
Hep G2 cytotoxicity assay
Hep G2 human liver cancer cells were cultured in phenol red Dulbecco’s
Modified Eagle Medium (DMEM) with 10% fetal bovine serum (FBS) and 1% Pen-strep (PSG) under 37°C and 5% CO2 atmospheric conditions. The cells were washed with phosphate buffered saline (PBS) and diluted with phenol red free DMEM to a concentration between 200,000 to 250,000 cells/mL. The cells we re distributed in a 96-well plate with each well containing 100 µL of the cell solution and were allowed to settle for 2 hours in the incubator. The cells were then treated with 200 µM of the aurones in DMSO and the known dyes in 10:90 (v:v) DMSO/ultrapure water in triplicates and were left in the incubator for 3 days. The vehicles were used as the negative controls (DMSO for the aurones and 10:90 DMSO:ultrapure water for the known dyes). 20 µL of 5 mg/mL MTT (3-(4,5-dimethylthiazol-2-yl)-2,5-diphenyltetrazolium bromide) was added to each well containing treated cells after the 3-day incubation period and was allowed to settle in the incubator for 3.5 more hours. Finally, the media was removed from the wells and replaced by 100 µL of DMSO to lyse the cells and dissolve the formazan crystals that were formed. The absorbance was then recorded on the SpectraMax M5 Multi -Mode Microplate Reader. The procedure was repeated two more times using different batches of cultured Hep G2 cells on different days. […]

`Cc1ccc(C=C2Oc3ccccc3C2=O)cc1` [Compound 1]: the ε in series [1] (UV–vis in CH3CN, at λmax) was determined as 20208 L/mol/cm; in series [1] (supplement sheet Tabular ε Data, slope of linear equation, unit not given, in L mol⁻¹ cm⁻¹), 20208. For the same molecule, the λmax in series [1] (UV–vis spectra determined in CH3CN) came to 382 nm; in series [1] (supplement sheet Tabular ε Data, unit not given), 382. For the same molecule, the “Hep G2 % inhibition” value in series [2] (200 μM concentration of compound, 3 days incubation, MTT readout) turned out to be 86.27 ± 1.09%. In addition, the % Inhibition – broadly, the percentage by which the read-out fell short of the control – was 88.03% in series [2] (Triplicate 1), 81.21% in series [2] (Triplicate 2) and 89.58% in series [2] (Triplicate 3).
